These are literature values, as cited in patent US20090075956A1 (priority 2005, published 2009).

Where a name gives a salt, the structure may show the parent alone.

For the compound `O=[N+]([O-])O[C@H]1CO[C@H]2[C@@H]1OC[C@H]2O[N+](=O)[O-]` [Diluted isosorbide dinitrate, 1,4,3,6-dianhydro-D-glucitol-2,5-dinitrate], the solubility in water result was “sparingly soluble”. Besides, the “solubility in organic solvents” value (organic solvents such as ethanol, ether and chloroform) was “freely soluble”.

For `NNc1nncc2ccccc12` [Hydralazine hydrochloride, hydralazine hydrochloride], the solubility in water entry is given as “soluble”. Further, the solubility in alcohol result (alcohol) was “slightly soluble”. The solubility in ether entry (ether) is listed as “very slightly soluble”.
